The text below walks through data of patent US4933361A, “Derivatives of bicyclic aminoacids agents containing these compounds and their use” (Hoechst Aktiengesellschaft, priority 1981, dated 1990).

Counter-ions that a name gives are not always drawn.

In the assay the test system is pressor reaction induced by 310 ng of angiotensin I. Description: Intraduodenal administration to the anesthetized rat, 50% inhibition of the pressor reaction induced by angiotensin I. Conditions: 310 ng angiotensin I, 30 min after administration; for ED50: 0.5 h. Format: in vivo. The source says: After administration in the dose . . . =ED50 :
[1] abbreviates: Table I, H atoms on C-3a and C-(6+n)a cis.
[2] abbreviates: Table II, H atoms on C-3a and C-(6+n)a trans, X = phenyl, R1 = methyl.

In the case of `CCOC(=O)[C@H](CCc1ccccc1)N[C@@H](C)C(=O)N1[C@@H]2CCCC[C@@H]2C[C@H]1C(=O)O` [Example 17, N-(1S-Carboethoxy-3-phenylpropyl)-S-alanyl-2S,3aR,7aR-octahydroindole-2-carboxylic acid hydrochloride], under setting [1], it took a dose of 0.05 mg/kg to reach the 50% effect level (ED50).
Take `CCOC(=O)[C@H](CCc1ccccc1)N[C@@H](C)C(=O)N1[C@@H]2CCC[C@@H]2C[C@H]1C(=O)O` [Example 18, N-(1S-Carboethoxy-3-phenylpropyl)-S-alanyl-2S,3aR,6aR-octahydrocyclopenta[b]pyrrole-2-carboxylic acid hydrochloride]: the 50% effect level under setting [1] (ED50) was put at a dose of 0.04 mg/kg. The ED50 values of the last two compounds are within 1.5-fold of each other.
As to `CCOC(=O)[C@H](CCc1ccccc1)N[C@@H](C)C(=O)N1[C@@H]2CCCCC[C@@H]2C[C@H]1C(=O)O` [Example 19, N-(1S-Carboethoxy-3-phenylpropyl)-S-alanyl-2S,3aR,8aR-decahydrocyclohepta[b]pyrrole-2-carboxylic acid hydrochloride], the median effective dose (ED50) (usually the dose that gives a 50% effect, or the effect in half of the subjects) under setting [1] is 0.23 mg/kg.
`C[C@H](N[C@@H](CCc1ccccc1)C(=O)O)C(=O)N1[C@@H]2CCCC[C@@H]2C[C@H]1C(=O)O` [Example 20, N-(1S-Carboxy-3-phenylpropyl)-S-alanyl-2S,3aR,7aR-octahydroindole-2-carboxylic acid]: the ED50 under setting [1] turned out to be 0.6 mg/kg.
In turn, `C[C@H](N[C@@H](CCc1ccccc1)C(=O)O)C(=O)N1[C@@H]2CCC[C@@H]2C[C@H]1C(=O)O` [Example 21, N-(1S-Carboxy-3-phenylpropyl)-S-alanyl-2S,3aR,6aR-octahydrocyclopenta[b]pyrrole-2-carboxylic acid] displayed an ED50 under setting [1] of 0.7 mg/kg.
Under setting [1], `C[C@H](N[C@@H](CCc1ccccc1)C(=O)O)C(=O)N1[C@@H]2CCCCC[C@@H]2C[C@H]1C(=O)O` [Example 22, N-(1S-Carboxy-3-phenylpropyl)-S-alanyl-2S,3aR,8aR-decahydrocyclohepta[b]pyrrole-2-carboxylic acid] registered an ED50 of 0.84 mg/kg.
`CCOC(=O)[C@H](CC(=O)c1ccccc1)N[C@@H](C)C(=O)N1C(C(=O)O)CC2CCCCC21.O=C(O)C(F)(F)F` (stereo partly drawn) [Example 29, N-(1S-Carboethoxy-3-phenyl-3-oxopropyl)-S-alanyl-2β,3aβ,7aβ-octahydroindole-2-carboxylic acid trifluoroacetate]: the “ED50 (50% inhibition of the pressor reaction induced by angiotensin I)” value under setting [1] came to 0.39 mg/kg.
On to `CCOC(=O)[C@H](CCc1ccccc1)N[C@@H](C)C(=O)N1[C@H](C(=O)O)C[C@H]2CCCC[C@@H]21` [Example 42, N-(1S-Carboethoxy-3-phenylpropyl)-S-alanyl-2S,3aR,7aS-octahydroindole-2-carboxylic acid], for which, under setting [2], the ED50 came out at 0.055 mg/kg.
As for `CCOC(=O)[C@H](CCc1ccccc1)N[C@@H](C)C(=O)N1[C@@H]2CCCC[C@H]2C[C@H]1C(=O)O` [Example 43, N-(1S-Carboethoxy-3-phenylpropyl)-S-alanyl-2S,3aS,7aR-octahydroindole-2-carboxylic acid], the 50% effective dose (ED50) under setting [2] is 0.065 mg/kg.
Under setting [2], `CCOC(=O)[C@H](CCc1ccccc1)N[C@@H](C)C(=O)N1[C@H](C(=O)O)C[C@H]2CCC[C@@H]21` [Example 44, N-(1S-Carboethoxy-3-phenylpropyl)-S-alanyl-2S,3aR,6aS-octahydrocyclopenta[b]pyrrole-2-carboxylic acid] had a 50% effective dose (ED50) of 0.04 mg/kg. Compared with the last compound, the ED50 is about 1.6-fold lower.
As to `CCOC(=O)[C@H](CCc1ccccc1)N[C@@H](C)C(=O)N1[C@H](C(=O)O)C[C@H]2CCCCC[C@@H]21` [Example 46, N-(1S-Carboethoxy-3-phenylpropyl)-S-alanyl-2S,3aR,8aS-decahydrocyclohepta[b]pyrrole-2-carboxylic acid], under setting [2], the ED50 was 0.11 mg/kg.
As to `CCOC(=O)[C@H](CC(=O)c1ccccc1)N[C@@H](C)C(=O)N1[C@H](C(=O)O)C[C@H]2CCCC[C@@H]21` [Example 67, N-(1S-Carboethoxy-3-keto-3-phenylpropyl)-S-alanyl-2S,3aR,7aS-octahydroindole-2-carboxylic acid], the 50% effective dose (ED50) under setting [2] stood at 0.18 mg/kg.
Turning to `C[C@H](N[C@@H](CCc1ccccc1)C(=O)O)C(=O)N1[C@H](C(=O)O)C[C@H]2CCCC[C@@H]21` [Example 75, N-(1S-Carboxy-3-phenylpropyl)-S-alanyl-2S,3aR,7aS-octahydroindole-2-carboxylic acid], the 50% effect level under setting [2] (ED50) was put at a dose of 0.8 mg/kg. Compared with the last compound, the ED50 is about 4.4-fold higher.
With `C[C@H](N[C@@H](CCc1ccccc1)C(=O)O)C(=O)N1[C@@H]2CCCC[C@H]2C[C@H]1C(=O)O` [Example 76, N-(1S-Carboxy-3-phenylpropyl)-S-alanyl-2S,3aS,7aR-octahydroindole-2-carboxylic acid], the 50% effect level under setting [2] (ED50) was put at a dose of 0.85 mg/kg.
`C[C@H](N[C@@H](CCc1ccccc1)C(=O)O)C(=O)N1[C@H](C(=O)O)C[C@H]2CCC[C@@H]21` [Example 77, N-(1S-Carboxy-3-phenylpropyl)-S-alanyl-2S,3aR,6aS-octahydrocyclopenta[b]pyrrole-2-carboxylic acid] showed a 50% effective dose (ED50) under setting [2] of 0.7 mg/kg.
For `C[C@H](N[C@@H](CCc1ccccc1)C(=O)O)C(=O)N1[C@H](C(=O)O)C[C@H]2CCCCC[C@@H]21` [Example 79, N-(1S-Carboxy-3-phenylpropyl)-S-alanyl-2S,3aR,6aS-decahydrocyclohepta[b]pyrrole-2-carboxylic acid], the ED50 under setting [2] was determined as 1.08 mg/kg.
